Reference: ChEMBL document CHEMBL5584242, “Discovery of pyridazinone derivatives bearing tetrahydroimidazo[1,2-a]pyrazine scaffold as potent inhibitors of transient receptor potential canonical 5 to ameliorate hypertension-induced renal injury in rats” (Eur J Med Chem, 2024)
Each block holds one molecule with its values, some of them ahead of it.

How the values were obtained:
[1] = rat, microsomes
[2] = Drug distribution in ICR mouse lung at 10 mg/kg, po measured after 1 hr by LC-MS/MS analysis; format: ADME, organism-based; settings: in vivo
[3] = Drug distribution in ICR mouse heart at 10 mg/kg, po measured after 1 hr by LC-MS/MS analysis; format: ADME, organism-based; settings: in vivo
[4] = Drug distribution in ICR mouse colon at 10 mg/kg, po measured after 1 hr by LC-MS/MS analysis; format: ADME, organism-based; settings: in vivo
[5] = human, microsomes
[6] = Cmax in ICR mouse at 10 mg/kg, po measured upto 24 hrs by LC-MS/MS analysis; format: ADME, organism-based; settings: in vivo
[7] = Drug distribution in ICR mouse kidney at 10 mg/kg, po measured after 1 hr by LC-MS/MS analysis; format: ADME, organism-based; settings: in vivo
[8] = in vitro; settings: rat, liver microsomes, F
[9] = Drug distribution in ICR mouse spleen at 10 mg/kg, po measured after 1 hr by LC-MS/MS analysis; format: ADME, organism-based; settings: in vivo
[10] = Drug distribution in ICR mouse liver at 10 mg/kg, po measured after 1 hr by LC-MS/MS analysis; format: ADME, organism-based; settings: in vivo
[11] = Half-life in ICR mouse at 10 mg/kg, po measured upto 24 hrs by LC-MS/MS analysis; format: ADME, organism-based; settings: in vivo
[12] = in vitro; settings: human, liver microsomes, F
[13] = in vitro; settings: mouse, liver microsomes, F
[14] = in vitro; settings: human, liver microsomes
[15] = Tmax in ICR mouse at 10 mg/kg, po measured upto 24 hrs by LC-MS/MS analysis; format: ADME, organism-based; settings: in vivo
[16] = in vitro; settings: mouse, liver microsomes
[17] = in vitro; settings: rat, liver microsomes
[18] = mouse, microsomes
[19] = Drug distribution in ICR mouse brain at 10 mg/kg, po measured after 1 hr by LC-MS/MS analysis; format: ADME, organism-based; settings: in vivo
[20] = rat, microsomes; remark: listed apart in the source
[21] = human, microsomes; remark: listed apart in the source
[22] = mouse, microsomes; remark: listed apart in the source

Structure (SMILES): COC(c1ccc(F)cc1Cl)c1cnc2n1CCN(c1cn[nH]c(=O)c1Cl)C2 (stereo in doubt; 12)
- CLH [1]: 97.3 mL/min/g
- Drug uptake [2]: Active
- Drug uptake [3]: Active
- Drug uptake [4]: Active
- CLH [5]: 17.7 mL/min/g
- Cmax [6]: 1150 ng/mL
- Drug uptake [7]: Active
- Fh [8]: 31.4%
- Drug uptake [9]: Active
- Drug uptake [10]: Active
- half-life [11]: 118 min
- Fh [12]: 52.5%
- Fh [13]: 49.7%
- half-life ([14]; t1/2): 119 min
- Tmax [15]: 60 min
- half-life ([16]; t1/2): 46.7 min
- half-life ([17]; t1/2): 21.6 min
- CLH [18]: 45 mL/min/g
- Drug uptake [19]: Not Active

- CLH [1]: 60.5 mL/min/g
- CLH [5]: 50.6 mL/min/g
- Fh [8]: 42.3%
- Fh [12]: 27.9%
- Fh [13]: 45%
- half-life [14]: 41.5 min
- half-life [16]: 38.7 min
- half-life [17]: 34.7 min
- CLH [18]: 54.2 mL/min/g
Structure (SMILES): COC(c1ccc(F)cc1C(F)(F)F)c1cnc2n1CCN(c1cn[nH]c(=O)c1Cl)C2 (centres undefined)

Structure (SMILES): COC(c1ccc(F)cc1Cl)c1cnc2n1CCN(c1cn[nH]c(=O)c1Cl)C2 (stereo in doubt; 12-2)
- CLH [1]: 142 mL/min/g
- CLH [5]: 17.5 mL/min/g
- t1/2 [20]: 14.8 min
- t1/2 [21]: 120 min
- t1/2 [22]: 50.3 min
- CLH [18]: 41.8 mL/min/g
